In the NIST ThermoML archive (doi:10.1016/j.fluid.2014.10.004):

Key:
[1] = 101.3 kPa, Liquid, Sing-around technique in a fixed-path interferometer
[2] = refractive index (Na D-line) (dimensionless); settings: 101.33 kPa, Liquid, Standard Abbe refractometry
[3] = xn = mol fraction of the nth substance listed; settings: 101.3 kPa, Liquid, Sing-around technique in a fixed-path interferometer
[4] = refractive index (Na D-line) (dimensionless); xn = mol fraction of the nth substance listed; settings: 101.3 kPa, Liquid, Standard Abbe refractometry

CCCCCCl [1-chloropentane]
Settings | refractive index, 298.15 K | refractive index, 308.15 K | refractive index, 318.15 K | speed of sound, 298.15 K [m/s] | speed of sound, 308.15 K [m/s] | speed of sound, 318.15 K [m/s]
[1] | – | – | – | 1164.2 | 1124.9 | 1085.8
[2] | 1.41015 | 1.40501 | 1.39984 | – | – | –

ClC(Cl)Cl [trichloromethane]
Settings | refractive index, 298.15 K | refractive index, 308.15 K | refractive index, 318.15 K | speed of sound, 298.15 K [m/s] | speed of sound, 308.15 K [m/s] | speed of sound, 318.15 K [m/s]
[1] | – | – | – | 984.42 | 950.45 | 916.63
[2] | 1.44209 | 1.43598 | 1.42986 | – | – | –

ClCCCCl [1,3-dichloropropane]
Settings | refractive index, 298.15 K | refractive index, 308.15 K | refractive index, 318.15 K | speed of sound, 298.15 K [m/s] | speed of sound, 308.15 K [m/s] | speed of sound, 318.15 K [m/s]
[1] | – | – | – | 1236.5 | 1199.7 | 1163.2
[2] | 1.44617 | 1.44123 | 1.43614 | – | – | –

ClCCCl [1,2-dichloroethane]
Settings | refractive index, 298.15 K | refractive index, 308.15 K | refractive index, 318.15 K | speed of sound, 298.15 K [m/s] | speed of sound, 308.15 K [m/s] | speed of sound, 318.15 K [m/s]
[1] | – | – | – | 1194.4 | 1156.1 | 1117.8
[2] | 1.44206 | 1.43661 | 1.43109 | – | – | –

CCCCCl [1-chlorobutane]
Settings | refractive index, 298.15 K | refractive index, 308.15 K | refractive index, 318.15 K | speed of sound, 298.15 K [m/s] | speed of sound, 308.15 K [m/s] | speed of sound, 318.15 K [m/s]
[1] | – | – | – | 1119 | 1078 | 1037.3
[2] | 1.39953 | 1.39413 | 1.38851 | – | – | –

C[N+](=O)[O-] [nitromethane]
Settings | refractive index, 298.15 K | refractive index, 308.15 K | refractive index, 318.15 K | speed of sound, 298.15 K | speed of sound, 308.15 K | speed of sound, 318.15 K
[1] | – | – | – | 1321.3 m/s [middle of 9 runs] | 1281.9 m/s [middle of 7 runs] | 1242.5 m/s [middle of 8 runs]
[2] | 1.37951 [middle of 8 runs] | 1.37473 [middle of 7 runs] | 1.37001 [middle of 7 runs] | – | – | –

C[N+](=O)[O-] [nitromethane] + ClCCCCCl
x2 = 0
Settings | refractive index, 298.15 K | refractive index, 308.15 K | refractive index, 318.15 K | speed of sound, 298.15 K [m/s] | speed of sound, 308.15 K [m/s] | speed of sound, 318.15 K [m/s]
[3] | – | – | – | 1321.5 | 1281.9 | 1242.5
[4] | 1.37955 | 1.37482 | 1.37001 | – | – | –

ClCCCCCl [1,4-dichlorobutane]
Settings | refractive index, 298.15 K | refractive index, 308.15 K | refractive index, 318.15 K | speed of sound, 298.15 K [m/s] | speed of sound, 308.15 K [m/s] | speed of sound, 318.15 K [m/s]
[1] | – | – | – | 1286.6 | 1251 | 1215.7
[2] | 1.45224 | 1.44756 | 1.44279 | – | – | –

ClCCCl [1,2-dichloroethane] + C[N+](=O)[O-]
x1 = 1
Settings | refractive index, 298.15 K | refractive index, 308.15 K | refractive index, 318.15 K | speed of sound, 298.15 K [m/s] | speed of sound, 308.15 K [m/s] | speed of sound, 318.15 K [m/s]
[3] | – | – | – | 1194.4 | 1156.1 | 1117.8
[4] | 1.44206 | 1.43661 | 1.43109 | – | – | –

CCCCCl [1-chlorobutane] + C[N+](=O)[O-]
x1 = 1
Settings | refractive index, 298.15 K | refractive index, 308.15 K | refractive index, 318.15 K | speed of sound, 298.15 K [m/s] | speed of sound, 308.15 K [m/s] | speed of sound, 318.15 K [m/s]
[3] | – | – | – | 1119 | 1078 | 1037.3
[4] | 1.39953 | 1.39413 | 1.38851 | – | – | –

CC(Cl)(Cl)Cl [1,1,1-trichloroethane]
Settings | refractive index, 298.15 K | refractive index, 308.15 K | refractive index, 318.15 K | speed of sound, 298.15 K [m/s] | speed of sound, 308.15 K [m/s] | speed of sound, 318.15 K [m/s]
[1] | – | – | – | 962.94 | 928.68 | 894.71
[2] | 1.43492 | 1.42908 | 1.42311 | – | – | –

C[N+](=O)[O-] [nitromethane] + CCCCCl
Settings | refractive index, 298.15 K | refractive index, 308.15 K | refractive index, 318.15 K | speed of sound, 298.15 K [m/s] | speed of sound, 308.15 K [m/s] | speed of sound, 318.15 K [m/s]
[3], x2 = 0 | – | – | – | 1321.5 | 1282.1 | 1242.8
[3], x2 = 0.1107 | – | – | – | 1273.7 | 1234.3 | 1195
[3], x2 = 0.2174 | – | – | – | 1236.5 | 1197.1 | 1157.8
[3], x2 = 0.3236 | – | – | – | 1207.6 | 1168.1 | 1128.9
[3], x2 = 0.3932 | – | – | – | 1191.9 | 1152.3 | 1112.8
[3], x2 = 0.4856 | – | – | – | 1174.5 | 1134.7 | 1094.9
[3], x2 = 0.5569 | – | – | – | 1163.5 | 1123.2 | 1083.1
[3], x2 = 0.6626 | – | – | – | 1149.3 | 1109.1 | 1068.9
[3], x2 = 0.7722 | – | – | – | 1137.6 | 1096.8 | 1056.6
[3], x2 = 0.8646 | – | – | – | 1129.1 | 1088.3 | 1047.8
[4], x2 = 0 | 1.37917 | 1.37447 | 1.3695 | – | – | –
[4], x2 = 0.1107 | 1.38191 | 1.37698 | 1.3718 | – | – | –
[4], x2 = 0.2174 | 1.38445 | 1.37936 | 1.37406 | – | – | –
[4], x2 = 0.3236 | 1.38691 | 1.38174 | 1.37632 | – | – | –
[4], x2 = 0.3932 | 1.38839 | 1.38321 | 1.37772 | – | – | –
[4], x2 = 0.4856 | 1.39032 | 1.38511 | 1.37958 | – | – | –
[4], x2 = 0.5569 | 1.39177 | 1.38656 | 1.38104 | – | – | –
[4], x2 = 0.6626 | 1.39383 | 1.38853 | 1.38299 | – | – | –
[4], x2 = 0.7722 | 1.39577 | 1.39045 | 1.3848 | – | – | –
[4], x2 = 0.8646 | 1.39729 | 1.39196 | 1.38635 | – | – | –

ClC(Cl)C(Cl)Cl [1,1,2,2-tetrachloroethane]
Settings | refractive index, 298.15 K | refractive index, 308.15 K | refractive index, 318.15 K | speed of sound, 298.15 K [m/s] | speed of sound, 308.15 K [m/s] | speed of sound, 318.15 K [m/s]
[1] | – | – | – | 1150.6 | 1118.7 | 1087
[2] | 1.49174 | 1.48654 | 1.48137 | – | – | –

C[N+](=O)[O-] [nitromethane] + ClCCCCl
x2 = 0
Settings | refractive index, 298.15 K | refractive index, 308.15 K | refractive index, 318.15 K | speed of sound, 298.15 K [m/s] | speed of sound, 308.15 K [m/s] | speed of sound, 318.15 K [m/s]
[3] | – | – | – | 1321.2 | 1281.8 | 1242.5
[4] | 1.37948 | 1.3748 | 1.37007 | – | – | –
